pIC50: −log10 of the molar value. ≈ marks a conversion by molar mass, not a printed value.
Columns and labels:
[1] = test system: Engineered E. coli pH425 rmtB; assay: Activity against G1405-methylated 16S-rRNA, E. coli pH425 rmtB; format: cell-based
Excerpt: (§1) Minimal inhibitory concentrations (MIC) have been determined by broth microdilution assays (CLSI. Methods for Dilution Antimicrobial Susceptibility Tests for Bacteria That Grow Aerobically; Approved Standard—Tenth Edition. CLSI document M07-A10. Wayne, Pa.: Clinical and Laboratory Standards Institute; 2015.).

[2] = test system: AG033 P. aer. APH(3′)-II AAC(6′)-I; assay: Antibacterial activity, clinical isolate AG033; format: cell-based; set-up: unit not given here
Excerpt: as §1
(§2) Table 4 and 5 show the antibacterial activity of the compounds of the invention against bacterial reference strains (table 4) and against representative clinical isolates (table 5).

[3] = test system: Engineered E. coli AG103 armA; assay: Activity against G1405-methylated 16S-rRNA, E. coli AG103 armA; format: cell-based
Excerpt: as §1

AG032 P. aer. APH(3′)-II = assay: Antibacterial activity, clinical isolate AG032; format: cell-based; set-up: unit not given here
Excerpt: as §1, §2

AG038 MRSA = assay: Antibacterial activity, clinical isolate AG038; format: cell-based; set-up: unit not given here
Excerpt: as §1, §2

AG003 E. coli AAC(3)-II = assay: Antibacterial activity, clinical isolate AG003; format: cell-based; set-up: unit not given here
Excerpt: as §1, §2

[4] = test system: human mitochondrial ribosomes; assay: in-vitro translation assay, human mitochondrial (human chimeric) ribosomes; format: biochemical
Excerpt: (§3) IC50 values for bacterial, human chimeric, and rabbit reticulocyte ribosomes have been determined by in-vitro translation assays as described previously (Proc. Nat. Ac. Sci USA 2012, 109(27):10984-10989).
(§4) Minimal inhibitory concentrations (MICs, […]) against clinical isolates from Institute of Medical Microbiology, Univ. Zurich, and the IC50 values for bacterial, human mitochondrial and human cytosolic ribosomes are indicated.

AG173 E. coli AAC(3)-IV = assay: Antibacterial activity, clinical isolate AG173; format: cell-based
Excerpt: as §1, §2

[5] = test system: clinical isolates carrying AAC(3)-IV; assay: MIC broth microdilution, AAC(3)-IV; format: cell-based
Excerpt: as §1, §4
(§5) Minimal inhibitory concentrations (μg/ml) against clinical isolates from Institute of Medical Microbiology, Univ. Zurich, and the IC50 values for bacterial, human mitochondrial and human cytosolic ribosomes are indicated.
(§6) The Minimal inhibitory concentrations (MICs, μg/ml) against clinical isolates from Institute of Medical Microbiology, Univ Zurich, and the IC50 values for bacterial, human mitochondrial and human cytosolic ribosomes are indicated.

[6] = test system: AG225, Acinetobacter baumannii pittii; assay: MIC reference strain AG225; format: cell-based; conditions: reference strain
Excerpt: as §1, §2
(§7) Legend to Tables: GEN, gentamicin; AMK, amikacin; PLZ, plazomicin; APR, apramycin; AG212, Escherichia coli ATCC25922; AG215, Klebsiella pneumonia; AG220, Pseudomonas aeruginosa ATCC27853; AG225, Acinetobacter baumannii pittii; AG290, Enterobacter cloacae; […], Mycobacterium smegmatis. MICs for AG192 have been determined in the presence of 0.5 μg/mL of ampicillin in the medium to mimic the synergistic effect of aminoglycoside and β-lactam antibiotics combination therapy in the treatment of Enterococcus infections in humans.

[7] = test system: Engineered E. coli pH424 armA; assay: Activity against G1405-methylated 16S-rRNA, E. coli pH424 armA; format: cell-based
Excerpt: as §1

[8] = test system: human cytosolic ribosomes; assay: in-vitro translation assay, human cytosolic ribosomes; format: biochemical
Excerpt: as §3, §4

[9] = test system: Engineered E. coli pH427 rmtF; assay: Activity against G1405-methylated 16S-rRNA, E. coli pH427 rmtF; format: cell-based
Excerpt: as §1

[10] = test system: AG212, Escherichia coli ATCC25922; assay: MIC reference strain AG212; format: cell-based; conditions: reference strain ATCC25922
Excerpt: as §1, §2, §7

bacterial ribosomes = assay: in-vitro translation assay, bacterial ribosomes; format: biochemical
Excerpt: as §3, §4

[11] = test system: AG215, Klebsiella pneumonia; assay: MIC reference strain AG215; format: cell-based; conditions: reference strain
Excerpt: as §1, §2, §7

ATCC19977 M. abcessus = assay: MIC reference strain ATCC19977; format: cell-based
Excerpt: as §1, §2

[12] = test system: AG220, Pseudomonas aeruginosa ATCC27853; assay: MIC reference strain AG220; format: cell-based
Excerpt: as §1, §2, §7

AG163 E. coli APH(3′)-I = assay: Antibacterial activity, clinical isolate AG163; format: cell-based; set-up: unit not given here
Excerpt: as §1, §2

[13] = test system: AG290, Enterobacter cloacae; assay: MIC reference strain AG290; format: cell-based; conditions: reference strain
Excerpt: as §1, §2, §7

[14] = test system: Engineered E. coli pH426 rmtC; assay: Activity against G1405-methylated 16S-rRNA, E. coli pH426 rmtC; format: cell-based
Excerpt: as §1

[15] = test system: AG039 MRSA AAC(6′)-I ANT(4′)-I; assay: Antibacterial activity, clinical isolate AG039; format: cell-based
Excerpt: as §1, §2

AG055 E. coli WT = assay: Antibacterial activity, clinical isolate AG055; format: cell-based; set-up: unit not given here
Excerpt: as §1, §2

[16] = test system: AG042 MRSA AAC(6′)-I ANT(4′)-I APH(2′); assay: Antibacterial activity, clinical isolate AG042; format: cell-based; set-up: unit not given here
Excerpt: as §1, §2

[17] = test system: clinical isolates carrying APH(3′)-I; assay: MIC broth microdilution, APH(3′)-I; format: cell-based; conditions: IMM Univ. Zurich
Excerpt: as §1, §4

[18] = test system: Engineered E. coli pH430 WT; assay: Activity, engineered E. coli pH430 WT; format: cell-based; set-up: unit not given here; conditions: wild type
Excerpt: as §1

AG031 P. aer. APH(3′)-II = assay: Antibacterial activity, clinical isolate AG031; format: cell-based; set-up: unit not given here
Excerpt: as §1, §2

AG001 E. coli WT = assay: Antibacterial activity, clinical isolate AG001; format: cell-based; set-up: unit not given here
Excerpt: as §1, §2

[19] = test system: clinical isolates carrying APH(3′)-II; assay: MIC broth microdilution, APH(3′)-II; format: cell-based; conditions: clinical isolates, IMM Univ. Zurich; APH(3′)-II; read-out: MIC APH(3′)-II
Excerpt: as §1, §4

[20] = test system: clinical isolates carrying APH(3′)-VI; assay: MIC broth microdilution, APH(3′)-VI; format: cell-based; conditions: IMM Univ. Zurich
Excerpt: as §1, §4

[21] = test system: SZ380, Mycobacterium smegmatis; assay: MIC reference strain SZ380; format: cell-based; conditions: reference strain
Excerpt: as §1, §2, §7

[22] = test system: E. coli AG153 AAC(3)-II APH(3′)-II rmtB; assay: Activity against G1405-methylated 16S-rRNA, clinical isolate AG153; format: cell-based; set-up: unit not given here
Excerpt: as §1

[23] = test system: K. pneum. AG269 AAC(3)-II AAC(6′)-I rmtB; assay: Activity against G1405-methylated 16S-rRNA, clinical isolate AG269; format: cell-based
Excerpt: as §1

[24] = test system: A baum. AG227 APH(3′)-I armA; assay: Activity against G1405-methylated 16S-rRNA, clinical isolate AG227; format: cell-based
Excerpt: as §1

WT clinical isolates = assay: MIC broth microdilution, WT; format: cell-based; conditions: clinical isolates, IMM Univ. Zurich; wild type
Excerpt: as §1, §4, §5, §6

[25] = test system: Enterob. AG302 AAC(3)-II AAC(6′)-I rmtC; assay: Activity against G1405-methylated 16S-rRNA, clinical isolate AG302; format: cell-based
Excerpt: as §1

isolates carrying apmA = assay: MIC broth microdilution, apmA; format: cell-based; conditions: apmA resistance gene
Excerpt: as §1, with “2015.). […]” for “2015.).”
as §5, §6

SMILES: CNC1C(OC2OC(CO)C(N)C(O)C2O)OC2CC(N)C(OC3C(N)CC(N)C(O)C3OC3OC(CO)C(O)C3O)OC2C1O [DC131, 5-O—(β-D-Ribefuranosyl) apramycin]
- Activity E. coli pH425 rmtB [1]: 4
- Antibacterial activity AG033 P. aer. APH(3′)-II AAC(6′)-I [2]: 128
- Activity E. coli AG103 armA [3]: 1
- Antibacterial activity AG032 P. aer. APH(3′)-II (AG032 P. aer. APH(3′)-II): 64-128
- Antibacterial activity AG038 MRSA (AG038 MRSA): 64
- Antibacterial activity AG003 E. coli AAC(3)-II (AG003 E. coli AAC(3)-II): 16
- pIC50 [4]: 3.53
- Antibacterial activity AG173 E. coli AAC(3)-IV (AG173 E. coli AAC(3)-IV): 16-32
- activity against the IMM clinical isolates carrying the gene for AAC(3)-IV [5]: no activity
- MIC ([5]; clinical isolates, IMM Univ. Zurich, AAC(3)-IV, read-out: MIC AAC(3)-IV): > 32 µg/mL
- MIC ([6]; Acinetobacter baumannii, read-out: MIC AG225 A. baumannii): 16 µg/mL
- Activity E. coli pH424 armA [7]: 2
- pIC50 [8]: 3.50
- Activity E. coli pH427 rmtF [9]: 4
- MIC ([10]; Escherichia coli, read-out: MIC AG212 E. coli): 8 µg/mL
- pIC50 (bacterial ribosomes): 6.96
- MIC ([11]; Klebsiella pneumoniae, read-out: MIC AG215 K. pneumonia): 2 µg/mL
- MIC (ATCC19977 M. abcessus; read-out: MIC ATCC19977 M. abcessus): 16 µg/mL (≈ 23.8 µM)
- MIC ([12]; Pseudomonas aeruginosa, ATCC27853, reference strain ATCC27853, read-out: MIC AG220 P. aeruginosa): 64 µg/mL
- Antibacterial activity AG163 E. coli APH(3′)-I (AG163 E. coli APH(3′)-I): 8-16
- MIC ([13]; Enterobacter cloacae, read-out: MIC AG290 E. cloacae): 4 µg/mL
- Activity E. coli pH426 rmtC [14]: 4
- Antibacterial activity AG039 MRSA AAC(6′)-I ANT(4′)-I [15]: 64
- Antibacterial activity AG055 E. coli WT (AG055 E. coli WT): 16-32
- Antibacterial activity AG042 MRSA AAC(6′)-I ANT(4′)-I APH(2′) [16]: 64
- MIC [17]: 64 µg/mL (≈ 95.3 µM)
- Activity E. coli pH430 WT [18]: 4
- Antibacterial activity AG031 P. aer. APH(3′)-II (AG031 P. aer. APH(3′)-II): 64-128
- Antibacterial activity AG001 E. coli WT (AG001 E. coli WT): 16
- MIC [19]: 8 µg/mL (≈ 11.9 µM)
- MIC [20]: 4 µg/mL (≈ 5.96 µM)

SMILES: CNC1C(OC2OC(CO)C(N)C(O)C2O)OC2CC(N)C(OC3C(N)CC(NC(=O)C(O)CCN)C(O)C3O)OC2C1O (centres unmarked) [DC176]
- Activity E. coli pH425 rmtB [1]: 2
- Antibacterial activity AG033 P. aer. APH(3′)-II AAC(6′)-I [2]: >32
- Activity E. coli AG103 armA [3]: 0.25-0.5
- Antibacterial activity AG032 P. aer. APH(3′)-II (AG032 P. aer. APH(3′)-II): 32
- Antibacterial activity AG038 MRSA (AG038 MRSA): 4-8
- Antibacterial activity AG003 E. coli AAC(3)-II (AG003 E. coli AAC(3)-II): 4
- MIC SZ380 M. smegmatis [21]: 0.5 µg/mL
- Activity E. coli AG153 AAC(3)-II APH(3′)-II rmtB [22]: 4
- pIC50 [4]: 3.78
- Antibacterial activity AG173 E. coli AAC(3)-IV (AG173 E. coli AAC(3)-IV): 2-4
- Activity K. pneum. AG269 AAC(3)-II AAC(6′)-I rmtB [23]: 2
- MIC AAC(3)-IV ([5]; clinical isolates, IMM Univ. Zurich, AAC(3)-IV): 4 µg/mL (≈ 6.24 µM)
- MIC AG225 A. baumannii [6]: 8 µg/mL
- Activity E. coli pH424 armA [7]: 2
- pIC50 [8]: 3.49
- Activity E. coli pH427 rmtF [9]: 4
- MIC AG212 E. coli [10]: 2 to 4 µg/mL
- pIC50 (bacterial ribosomes): 6.96
- MIC AG215 K. pneumonia [11]: 2 µg/mL
- MIC ATCC19977 M. abcessus (ATCC19977 M. abcessus; reference strain): 2 µg/mL (≈ 3.12 µM)
- MIC AG220 P. aeruginosa ([12]; reference strain ATCC27853): 16 µg/mL
- Antibacterial activity AG163 E. coli APH(3′)-I (AG163 E. coli APH(3′)-I): 4
- MIC AG290 E. cloacae [13]: 4 µg/mL
- Activity A baum. AG227 APH(3′)-I armA [24]: 2
- Activity E. coli pH426 rmtC [14]: 4
- Antibacterial activity AG039 MRSA AAC(6′)-I ANT(4′)-I [15]: 4-8
- Antibacterial activity AG055 E. coli WT (AG055 E. coli WT): 8
- Antibacterial activity AG042 MRSA AAC(6′)-I ANT(4′)-I APH(2′) [16]: 8
- MIC WT (WT clinical isolates): 2 µg/mL (≈ 3.12 µM)
- Activity E. coli pH430 WT [18]: 2
- Activity Enterob. AG302 AAC(3)-II AAC(6′)-I rmtC [25]: 2
- Antibacterial activity AG031 P. aer. APH(3′)-II (AG031 P. aer. APH(3′)-II): 16
- Antibacterial activity AG001 E. coli WT (AG001 E. coli WT): 4
- MIC apmA (isolates carrying apmA): 16 µg/mL (≈ 25 µM)
